According to patent publication US20250051356A1, “RIFABUTIN ANALOGS FOR THE TREATMENT OF DISEASE” (priority 2021, published 2025):
Values after ≈ are worked out from the molar mass of the structure shown. Like-named read-outs stand apart in the source and are kept apart here.

Key:
Assay type in all cases: cell-based
[1] = test system: M. abscessus subsp. abscessus ATCC 19977; experiment: MIC against M. abscessus in Middlebrook 7H9 + ADC; settings: Mycobacteroides abscessus
[2] = test system: S. aureus (UAMS-1625 strain); experiment: MIC by broth microdilution against S. aureus; settings: Staphylococcus aureus, read-out: MIC S. aureus
[3] = test system: A. baumannii (HUMC1 strain); experiment: MIC by broth microdilution against A. baumannii in RPMI + 10% FCS; settings: Acinetobacter baumannii, read-out: MIC A. baumannii
[4] = ATCC19977, ATCC 19977, 7H9 + ADC, read-out: MIC M. abscessus

| Structure (SMILES) | MIC [1, 4] | MIC [2] | MIC ([3]; HUMC1 strain, RPMI + 10% FCS) | MIC ([1]; ATCC19977, read-out: MIC M. abscessus) | MIC [3] |
| --- | --- | --- | --- | --- | --- |
| CO[C@H]1/C=C/O[C@@]2(C)Oc3c(C)c(O)c4c(c3C2=O)C2=NC3(CCN(CC(C)C)CC3)NC2=C(NC(=O)/C(C)=C\C=C\[C@H](C)[C@H](O)[C@@H](C)[C@@H](O)[C@@H](C)[C@H](OC(=O)CC(=O)OC2CCN(C)CC2)[C@@H]1C)C4=O [Compound 45] | 0.5 mg/L | 0.06 mg/L (≈ 0.0607 µM) | 0.004 mg/L |  |  |
| CO[C@H]1/C=C/O[C@@]2(C)Oc3c(C)c(O)c4c(c3C2=O)C2=NC3(CCN(CC(C)C)CC3)NC2=C(NC(=O)/C(C)=C\C=C\[C@H](C)[C@H](O)[C@@H](C)[C@@H](O)[C@@H](C)[C@H](OC(=O)CC(=O)N2CCC(n3c(=O)[nH]c5ccccc53)CC2)[C@@H]1C)C4=O [Compound 46] | 0.5 mg/L | 0.25 mg/L (≈ 0.229 µM) | 0.03 mg/L |  |  |
| CO[C@H]1/C=C/O[C@@]2(C)Oc3c(C)c(O)c4c(c3C2=O)C2=NC3(CCN(CC(C)C)CC3)NC2=C(NC(=O)/C(C)=C\C=C\[C@H](C)[C@H](O)[C@@H](C)[C@@H](O)[C@@H](C)[C@H](OC(=O)CC(=O)N2CCC(n3c(=O)[nH]c5cc(Cl)ccc53)CC2)[C@@H]1C)C4=O [Compound 47] | 0.5 mg/L | 1 mg/L (≈ 0.889 µM) | 0.125 mg/L |  |  |
| CO[C@H]1/C=C/O[C@@]2(C)Oc3c(C)c(O)c4c(c3C2=O)C2=NC3(CCN(CC(C)C)CC3)NC2=C(NC(=O)/C(C)=C\C=C\[C@H](C)[C@H](O)[C@@H](C)[C@@H](O)[C@@H](C)[C@H](OC(=O)CC(=O)N2CCC3(CC2)C(=O)NCN3c2ccccc2)[C@@H]1C)C4=O [Compound 48] | 0.5 mg/L | 0.25 mg/L (≈ 0.226 µM) | 0.03 mg/L |  |  |
| COc1cc(CC2CCN(C(=O)CC(=O)O[C@H]3[C@H](C)[C@H](O)[C@H](C)[C@@H](O)[C@@H](C)/C=C/C=C(/C)C(=O)NC4=C5NC6(CCN(CC(C)C)CC6)N=C5c5c(c(O)c(C)c6c5C(=O)[C@@](C)(O/C=C/[C@H](OC)[C@H]3C)O6)C4=O)CC2)cc(C(F)(F)F)c1 [Compound 51] | 1 mg/L | 2 mg/L (≈ 1.74 µM) | 0.06 mg/L |  |  |
| CO[C@H]1/C=C/O[C@@]2(C)Oc3c(C)c(O)c4c(c3C2=O)C2=NC3(CCN(CC(C)C)CC3)NC2=C(NC(=O)/C(C)=C\C=C\[C@H](C)[C@H](O)[C@@H](C)[C@@H](O)[C@@H](C)[C@H](OC(=O)CC(=O)N2CCC([C@@H](O)c3nccn3C)CC2)[C@@H]1C)C4=O [Compound 53] | 1 mg/L | 0.125 mg/L (≈ 0.117 µM) | ≤ 0.002 mg/L |  |  |
| CO[C@H]1/C=C/O[C@@]2(C)Oc3c(C)c(O)c4c(c3C2=O)C2=NC3(CCN(CC(C)C)CC3)NC2=C(NC(=O)/C(C)=C\C=C\[C@H](C)[C@H](O)[C@@H](C)[C@@H](O)[C@@H](C)[C@H](OC(=O)CC(=O)N2CCC(N3CCCCC3)CC2)[C@@H]1C)C4=O [Compound 58] | 1 mg/L | 0.03 mg/L (≈ 0.0288 µM) | ≤ 0.002 mg/L |  |  |
| CO[C@H]1/C=C/O[C@@]2(C)Oc3c(C)c(O)c4c(c3C2=O)C2=NC3(CCN(CC(C)C)CC3)NC2=C(NC(=O)/C(C)=C\C=C\[C@H](C)[C@H](O)[C@@H](C)[C@@H](O)[C@@H](C)[C@H](OC(=O)CC(=O)N2CCC(NC(=O)OC(C)(C)C)CC2)[C@@H]1C)C4=O [Compound 59] | 0.5 mg/L | 0.125 mg/L (≈ 0.116 µM) | 0.008 mg/L |  |  |
| CO[C@H]1/C=C/O[C@@]2(C)Oc3c(C)c(O)c4c(c3C2=O)C2=NC3(CCN(CC(C)C)CC3)NC2=C(NC(=O)/C(C)=C\C=C\[C@H](C)[C@H](O)[C@@H](C)[C@@H](O)[C@@H](C)[C@H](OC(=O)CC(=O)N2CCC(n3cccn3)CC2)[C@@H]1C)C4=O [Compound 60] | 0.5 mg/L | 0.03 mg/L (≈ 0.0293 µM) | ≤ 0.002 mg/L |  |  |
| CO[C@H]1/C=C/O[C@@]2(C)Oc3c(C)c(O)c4c(c3C2=O)C2=NC3(CCN(CC(C)C)CC3)NC2=C(NC(=O)/C(C)=C\C=C\[C@H](C)[C@H](O)[C@@H](C)[C@@H](O)[C@@H](C)[C@H](OC(=O)CC(=O)N2CCC(NS(=O)(=O)c3ccccc3)CC2)[C@@H]1C)C4=O [Compound 61] |  | 0.125 mg/L (≈ 0.112 µM) |  | 0.5 mg/L | 0.008 mg/L |
| CO[C@H]1/C=C/O[C@@]2(C)Oc3c(C)c(O)c4c(c3C2=O)C2=NC3(CCN(CC(C)C)CC3)NC2=C(NC(=O)/C(C)=C\C=C\[C@H](C)[C@H](O)[C@@H](C)[C@@H](O)[C@@H](C)[C@H](OC(=O)CC(=O)N2CCC(N3CCn5ccnc5C3)CC2)[C@@H]1C)C4=O [Compound 62] | 1 mg/L | 0.06 mg/L (≈ 0.0556 µM) | ≤ 0.002 mg/L |  |  |
| CO[C@H]1/C=C/O[C@@]2(C)Oc3c(C)c(O)c4c(c3C2=O)C2=NC3(CCN(CC(C)C)CC3)NC2=C(NC(=O)/C(C)=C\C=C\[C@H](C)[C@H](O)[C@@H](C)[C@@H](O)[C@@H](C)[C@H](OC(=O)CC(=O)N2CC(Nc3ccc(F)cc3)C2)[C@@H]1C)C4=O [Compound 63] | 0.5 mg/L | 0.25 mg/L (≈ 0.241 µM) | 0.016 mg/L |  |  |
| CO[C@H]1/C=C/O[C@@]2(C)Oc3c(C)c(O)c4c(c3C2=O)C2=NC3(CCN(CC(C)C)CC3)NC2=C(NC(=O)/C(C)=C\C=C\[C@H](C)[C@H](O)[C@@H](C)[C@@H](O)[C@@H](C)[C@H](OC(=O)CC(=O)N2CC(n3ccnn3)C2)[C@@H]1C)C4=O [Compound 64] | 1 mg/L | 0.06 mg/L (≈ 0.0602 µM) | ≤ 0.002 mg/L |  |  |
| CO[C@H]1/C=C/O[C@@]2(C)Oc3c(C)c(O)c4c(c3C2=O)C2=NC3(CCN(CC(C)C)CC3)NC2=C(NC(=O)/C(C)=C\C=C\[C@H](C)[C@H](O)[C@@H](C)[C@@H](O)[C@@H](C)[C@H](OC(=O)CC(=O)N2CCc3[nH]c5ccccc5c3C2)[C@@H]1C)C4=O [Compound 65] | 0.5 mg/L | 0.125 mg/L (≈ 0.12 µM) | 0.016 mg/L |  |  |
| CO[C@H]1/C=C/O[C@@]2(C)Oc3c(C)c(O)c4c(c3C2=O)C2=NC3(CCN(CC(C)C)CC3)NC2=C(NC(=O)/C(C)=C\C=C\[C@H](C)[C@H](O)[C@@H](C)[C@@H](O)[C@@H](C)[C@H](OC(=O)CCC(=O)NCCN(C)C)[C@@H]1C)C4=O [Compound 72] | 1 mg/L | 0.06 mg/L (≈ 0.0615 µM) | ≤ 0.002 mg/L |  |  |
| CO[C@H]1/C=C/O[C@@]2(C)Oc3c(C)c(O)c4c(c3C2=O)C2=NC3(CCN(CC(C)C)CC3)NC2=C(NC(=O)/C(C)=C\C=C\[C@H](C)[C@H](O)[C@@H](C)[C@@H](O)[C@@H](C)[C@H](OC(=O)CCC(=O)OCC2CCCN(C)C2)[C@@H]1C)C4=O (stereo partly drawn) [Compound 73] | 1 mg/L | 0.06 mg/L (≈ 0.059 µM) | ≤ 0.002 mg/L |  |  |
| CO[C@H]1/C=C/O[C@@]2(C)Oc3c(C)c(O)c4c(c3C2=O)C2=NC3(CCN(CC(C)C)CC3)NC2=C(NC(=O)/C(C)=C\C=C\[C@H](C)[C@H](O)[C@@H](C)[C@@H](O)[C@@H](C)[C@H](OC(=O)CCCC(=O)OCC2CCCN(C)C2)[C@@H]1C)C4=O (stereo partly drawn) [Compound 74] | 1 mg/L | 0.06 mg/L (≈ 0.0582 µM) | ≤ 0.002 mg/L |  |  |
| CO[C@H]1/C=C/O[C@@]2(C)Oc3c(C)c(O)c4c(c3C2=O)C2=NC3(CCN(CC(C)C)CC3)NC2=C(NC(=O)/C(C)=C\C=C\[C@H](C)[C@H](O)[C@@H](C)[C@@H](O)[C@@H](C)[C@H](OC(=O)CCCC(=O)OC2CCN(C)C2)[C@@H]1C)C4=O (stereo partly drawn) [Compound 77] | 0.5 mg/L | 0.06 mg/L (≈ 0.0599 µM) | ≤ 0.002 mg/L |  |  |
| CO[C@H]1/C=C/OC2(C)Oc3c(C)c(O)c4c(c3C2=O)C2=NC3(CCN(CC(C)C)CC3)NC2=C(NC(=O)/C(C)=C\C=C\[C@H](C)[C@H](O)[C@@H](C)[C@@H](O)[C@@H](C)[C@H](OC(=O)CC(=O)N2CCn3c2nc2ccccc23)[C@@H]1C)C4=O (stereo partly drawn) [Compound 89] | 0.5 mg/L | 0.125 mg/L (≈ 0.121 µM) | 0.016 mg/L |  |  |
| CO[C@H]1/C=C/O[C@@]2(C)Oc3c(C)c(O)c4c(c3C2=O)C2=NC3(CCN(CC(C)C)CC3)NC2=C(NC(=O)/C(C)=C\C=C\[C@H](C)[C@H](O)[C@@H](C)[C@@H](O)[C@@H](C)[C@H](OC(=O)CC(=O)N2CCN(C3CN(C)C3)CC2)[C@@H]1C)C4=O [Compound 111] | 0.5 mg/L | 0.125 mg/L (≈ 0.122 µM) | 0.06 mg/L |  |  |
| CO[C@H]1/C=C/O[C@@]2(C)Oc3c(C)c(O)c4c(c3C2=O)C2=NC3(CCN(CC(C)C)CC3)NC2=C(NC(=O)/C(C)=C\C=C\[C@H](C)[C@H](O)[C@@H](C)[C@@H](O)[C@@H](C)[C@H](OC(=O)CC(=O)N2CCN(C3CCN(C)CC3)CC2)[C@@H]1C)C4=O [Compound 112] | 1 mg/L | 0.125 mg/L (≈ 0.118 µM) | 0.004 mg/L |  |  |
| CO[C@H]1/C=C/O[C@@]2(C)Oc3c(C)c(O)c4c(c3C2=O)C2=NC3(CCN(CC(C)C)CC3)NC2=C(NC(=O)/C(C)=C\C=C\[C@H](C)[C@H](O)[C@@H](C)[C@@H](O)[C@@H](C)[C@H](OC(=O)CC(=O)N2CCN(CCN(C)C)CC2)[C@@H]1C)C4=O [Compound 113] | 0.5 mg/L | 0.06 mg/L (≈ 0.0582 µM) | 0.06 mg/L |  |  |
| CO[C@H]1/C=C/O[C@@]2(C)Oc3c(C)c(O)c4c(c3C2=O)C2=NC3(CCN(CC(C)C)CC3)NC2=C(NC(=O)/C(C)=C\C=C\[C@H](C)[C@H](O)[C@@H](C)[C@@H](O)[C@@H](C)[C@H](OC(=O)CC(=O)N2CCN(CCN3CCCCC3)CC2)[C@@H]1C)C4=O [Compound 114] | 0.5 mg/L | 0.125 mg/L (≈ 0.117 µM) | ≤ 0.002 mg/L |  |  |
